Laboratory results taken from paper PMC7187165, “Structure‐Based Design, Synthesis, and Biological Evaluation of Triazole‐Based smHDAC8 Inhibitors” (Chemmedchem, 2020).

Tests used:
[1] = molecular target: T1, smHDAC8 (Schistosoma mansoni, UniProt A5H660); experiment: biochemical; format: biochemical; settings: @ 10 μM; pretest n=1; read-out: smHDAC8 (% inhibition, Fluor de Lys)
T1 construct: made in house; host or cells: E. coli
T1 sequence (A5H660 1-440): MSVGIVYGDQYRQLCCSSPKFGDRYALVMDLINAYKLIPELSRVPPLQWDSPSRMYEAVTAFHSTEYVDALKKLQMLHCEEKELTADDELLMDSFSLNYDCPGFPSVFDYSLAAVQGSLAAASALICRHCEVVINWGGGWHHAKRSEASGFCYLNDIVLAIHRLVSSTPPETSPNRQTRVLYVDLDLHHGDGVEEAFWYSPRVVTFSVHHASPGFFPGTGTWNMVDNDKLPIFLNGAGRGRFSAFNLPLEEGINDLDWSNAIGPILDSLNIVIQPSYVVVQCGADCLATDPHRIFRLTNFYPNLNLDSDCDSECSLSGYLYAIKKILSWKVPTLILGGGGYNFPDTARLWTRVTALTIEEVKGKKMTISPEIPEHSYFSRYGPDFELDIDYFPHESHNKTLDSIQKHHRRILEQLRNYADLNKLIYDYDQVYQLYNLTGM

[2] = molecular target: T2, hsHDAC1 (Homo sapiens, UniProt Q13547); experiment: In vitro hsHDAC1 inhibition (ZMAL substrate, trypsin developer); format: biochemical; settings: read-out: hsHDAC1 (% inhibition, ZMAL)
T2 sequence (Q13547 whole entry): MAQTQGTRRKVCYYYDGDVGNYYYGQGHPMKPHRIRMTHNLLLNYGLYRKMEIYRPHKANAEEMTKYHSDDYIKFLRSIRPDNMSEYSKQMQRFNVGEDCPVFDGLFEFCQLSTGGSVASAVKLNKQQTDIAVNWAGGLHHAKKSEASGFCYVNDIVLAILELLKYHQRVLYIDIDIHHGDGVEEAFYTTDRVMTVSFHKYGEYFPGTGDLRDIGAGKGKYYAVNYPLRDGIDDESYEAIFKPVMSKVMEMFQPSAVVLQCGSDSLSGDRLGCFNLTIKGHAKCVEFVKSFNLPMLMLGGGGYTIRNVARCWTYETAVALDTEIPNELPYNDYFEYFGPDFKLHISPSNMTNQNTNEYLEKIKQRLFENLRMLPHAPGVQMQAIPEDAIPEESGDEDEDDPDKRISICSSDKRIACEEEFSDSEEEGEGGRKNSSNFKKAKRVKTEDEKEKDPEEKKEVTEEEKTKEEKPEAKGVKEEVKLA

[3] = molecular target: T2, hsHDAC1; set-up: method as in PMID 24086136, PMID 26013035; settings: @ 10 μM; SAHA row of Table 3; cited from earlier work

## O=C(CCCCCCC(=O)Nc1ccccc1)NO [SAHA (1), SAHA, reference compound]
[1]
  inhibition at 10 µM: 72%
[2]
  inhibition at 10 µM: 97.3 ± 1.3%
[3]
  hsHDAC1 % inhibition (ZMAL): 0.117±0.0056 97.3±1.3 % @ 10 μM
